Results reported in patent US9708258B2, “Indole 3-carbinol derivatives” (Cadila Pharmaceuticals Ltd, priority 2013, dated 2017).

System: Carrageenan acute paw edema in Wistar rats
Assay: anti-inflammatory effect in the acute paw edema model (Carrageenan) in Wistar rats
Type: in vivo
Settings: 50 mg/kg oral, basal = 100; for paw volume, Time 1 hr: 1 hr after carrageenan; for paw volume, Time 2 hr: 2 hr after carrageenan; for paw volume, Time 3 hr: 3 hr after carrageenan; for paw volume, Time 4 hr: 4 hr after carrageenan; for paw volume, Time 5 hr: 5 hr after carrageenan; for paw volume, Time 6 hr: 6 hr after carrageenan
Procedure: General Procedure for Screening:
Evaluated the anti-inflammatory effect of compounds of formula-I using acute paw edema model in Wistar rats using the following procedure.
All animals will be divided into required number of groups (n=6 per group; 8-12 weeks age) on the basis of body weight. After grouping basal paw volume of all animals will be measured with the help of plethysmometer instrument followed by drug administration by oral route. After 1 hr of dosing 100 μL of 1% Carrageenan prepared in normal saline will be administered in hind paw of all animals by S.C route. After 1 hr of carrageenan dosing paw volume of all animals will be measure up to 6 hr at each 1 hr interval.

CC(C)(C)OC(=O)n1cc(COC(=O)CCC(=O)O)c2ccccc21 [CPL-2012-136, Succinic acid mono-(1-tert-butoxycarbonyl-1H-indol-3-ylmethyl) ester]
paw volume, Time 1 hr: 117.26
paw volume, Time 2 hr: 121.86
paw volume, Time 3 hr: 123.85
paw volume, Time 4 hr: 121.57
paw volume, Time 5 hr: 119.72
paw volume, Time 6 hr: 111.76

CCC(=O)OCc1cn(C(=O)OC(C)(C)C)c2ccccc12 [CPL-2012-139, 3-Propionyloxymethyl-indole-1-carboxylic acid tert-butyl ester]
paw volume, Time 1 hr: 116.73
paw volume, Time 2 hr: 123.68
paw volume, Time 3 hr: 122.72
paw volume, Time 4 hr: 120.63
paw volume, Time 5 hr: 115.55
paw volume, Time 6 hr: 113.42

CCCCC(=O)OCc1cn(C(=O)OC(C)(C)C)c2ccccc12 [CPL-2012-144, 3-Pentanoyloxymethyl-indole-1-carboxylic acid tert-butyl ester]
paw volume, Time 1 hr: 112.98
paw volume, Time 2 hr: 123.96
paw volume, Time 3 hr: 125.7
paw volume, Time 4 hr: 123.32
paw volume, Time 5 hr: 123.07
paw volume, Time 6 hr: 121.46

CC(C)(C)OC(=O)n1cc(C(O)c2cc(F)c(F)cc2F)c2ccccc21 (stereo not drawn) [CPL-2013-156, 3-[Hydroxy-(2,4,5-trifluoro-phenyl)-methyl]indole-1-carboxylic acid tert-butyl ester]
paw volume, Time 1 hr: 115.2
paw volume, Time 2 hr: 113.62
paw volume, Time 3 hr: 116.25
paw volume, Time 4 hr: 115.73
paw volume, Time 5 hr: 113.69
paw volume, Time 6 hr: 111.56

CCC(=O)OCc1cn(C(=O)OCc2ccccc2)c2ccccc12 [CPL-2013-158, 3-Propionyloxymethyl-indole-1-carboxylic acid benzyl ester]
paw volume, Time 1 hr: 113.82
paw volume, Time 2 hr: 115.12
paw volume, Time 3 hr: 112.02
paw volume, Time 4 hr: 112.46
paw volume, Time 5 hr: 108.11
paw volume, Time 6 hr: 107.2
